# Results published in the supplement of paper PMC10307832.
# Columns and labels:
# Assay in all cases: relative viability (nuclei count vs DMSO), 5 days (fraction); higher = more cells survive
# LOU-NH91 = system: LOU-NH91
# Procedure, shortened: (§1)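 Lung cancer cell lines, seeded in 1536-well plates, were treated the following day by pin tool with a single drug or with five library-drug doses (not always all listed) in √10 steps on top of a fixed anchor-drug dose. Cells were fixed and nuclei stained in one step after 5 days, and nuclei were counted. Relative viability is the nuclei count for treated wells divided by that for vehicle wells, reported as medians of duplicate plates.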
# HCC-44 = system: HCC-44
# Procedure, shortened: as §1
# NCI-H647 = system: NCI-H647
# Procedure, shortened: as §1
# NCI-H727 = system: NCI-H727
# Procedure, shortened: as §1
# NCI-H2347 = system: NCI-H2347
# Procedure, shortened: as §1
# NCI-H838 = system: NCI-H838
# Procedure, shortened: as §1
# NCI-H1395 = system: NCI-H1395
# Procedure, shortened: as §1
# NCI-H441 = system: NCI-H441
# Procedure, shortened: as §1
# 201T = system: 201T
# Procedure, shortened: as §1
# LCLC-103H = system: LCLC-103H
# Procedure, shortened: as §1
# NCI-H2087 = system: NCI-H2087
# Procedure, shortened: as §1
smiles,measurement,setting,value
Nc1ccn([C@@H]2O[C@H](CO)[C@@H](O)[C@@H]2O)c(=O)n1 [Cytarabine] + O=C(CCCCCCC(=O)Nc1ccccc1)NO [Vorinostat] (partner 1 µM),relative viability,LOU-NH91; first compound 0.005 µM,0.857
same,relative viability,LOU-NH91; first compound 0.01581 µM,0.917
same,relative viability,LOU-NH91; first compound 0.05 µM,0.806
same,relative viability,LOU-NH91; first compound 0.1581 µM,0.772
same,relative viability,LOU-NH91; first compound 0.5 µM,0.676
same,relative viability,HCC-44; first compound 0.005 µM,1.2
same,relative viability,HCC-44; first compound 0.01581 µM,1.09
same,relative viability,HCC-44; first compound 0.05 µM,1.08
same,relative viability,HCC-44; first compound 0.1581 µM,0.973
same,relative viability,HCC-44; first compound 0.5 µM,0.948
same,relative viability,NCI-H647; first compound 0.005 µM,0.284
same,relative viability,NCI-H647; first compound 0.01581 µM,0.294
same,relative viability,NCI-H647; first compound 0.05 µM,0.149
same,relative viability,NCI-H647; first compound 0.1581 µM,0.0878
same,relative viability,NCI-H647; first compound 0.5 µM,0.0778
same,relative viability,NCI-H727; first compound 0.005 µM,1.22
same,relative viability,NCI-H727; first compound 0.01581 µM,1.16
same,relative viability,NCI-H727; first compound 0.05 µM,0.566
same,relative viability,NCI-H727; first compound 0.1581 µM,0.552
same,relative viability,NCI-H727; first compound 0.5 µM,0.524
same,relative viability,NCI-H2347; first compound 0.005 µM,0.531
same,relative viability,NCI-H2347; first compound 0.01581 µM,0.586
same,relative viability,NCI-H2347; first compound 0.05 µM,0.555
same,relative viability,NCI-H2347; first compound 0.1581 µM,0.498
same,relative viability,NCI-H2347; first compound 0.5 µM,0.409
same,relative viability,NCI-H838; first compound 0.005 µM,0.715
same,relative viability,NCI-H838; first compound 0.01581 µM,0.651
same,relative viability,NCI-H838; first compound 0.05 µM,0.654
same,relative viability,NCI-H838; first compound 0.1581 µM,0.515
same,relative viability,NCI-H838; first compound 0.5 µM,0.318
same,relative viability,NCI-H1395; first compound 0.005 µM,0.692
same,relative viability,NCI-H1395; first compound 0.01581 µM,0.586
same,relative viability,NCI-H1395; first compound 0.05 µM,0.5
same,relative viability,NCI-H1395; first compound 0.1581 µM,0.357
same,relative viability,NCI-H1395; first compound 0.5 µM,0.349
same,relative viability,NCI-H441; first compound 0.005 µM,0.527
same,relative viability,NCI-H441; first compound 0.01581 µM,0.882
same,relative viability,NCI-H441; first compound 0.05 µM,0.852
same,relative viability,NCI-H441; first compound 0.1581 µM,0.398
same,relative viability,NCI-H441; first compound 0.5 µM,0.229
same,relative viability,201T; first compound 0.005 µM,0.978
same,relative viability,201T; first compound 0.01581 µM,1.03
same,relative viability,201T; first compound 0.05 µM,1
same,relative viability,201T; first compound 0.1581 µM,0.994
same,relative viability,201T; first compound 0.5 µM,0.937
same,relative viability,LCLC-103H; first compound 0.005 µM,0.806
same,relative viability,LCLC-103H; first compound 0.01581 µM,0.861
same,relative viability,LCLC-103H; first compound 0.05 µM,0.758
same,relative viability,LCLC-103H; first compound 0.1581 µM,0.745
same,relative viability,LCLC-103H; first compound 0.5 µM,0.692
same,relative viability,NCI-H2087; first compound 0.005 µM,0.416
same,relative viability,NCI-H2087; first compound 0.01581 µM,0.961
same,relative viability,NCI-H2087; first compound 0.05 µM,0.598
same,relative viability,NCI-H2087; first compound 0.1581 µM,0.288
same,relative viability,NCI-H2087; first compound 0.5 µM,0.308
